Test results: US20230033047A1, “Estrogen Metabolite Levels And Cancer Driver Gene Mutations In Lung Cancer Risk Stratification And Treatment” (Institute For Cancer Research d/b/a The Research Institute …, priority 2020, published 2023)
“Also recorded” adds a separate entry of the source. Marks after values point to notes of the source that are not given here.

Assays:
Assay type in all cases: cell-based, human
HBEC-65KT cells [1] = test: Comet assay of DNA damage in HBEC-65KT cells; conditions: HBEC-65KT (high-activity CYP1B1, low-activity COMT); short-term treatment; FIG. 4
Method: (§1) DNA was extracted from expanded clones for sequencing. The mutation status of 50 oncogenic driver genes was examined in transformed cells by next-gen sequencing using an AmpliSeq Illumina for Cancer Hotspot Panel v2. Data were analyzed using Illumina software. DNA damage induced by short-term treatment with estrogens was measured using the Comet assay (see, Mozaffarieh et al., Mol. Vis., 2008, 14, 1584-8). Other assays, however, may be used as desired.

HBEC-57KT cells [2] = test: Comet assay of DNA damage in HBEC-57KT cells; conditions: HBEC-57KT (high-activity CYP1B1, low-activity COMT); short-term treatment; FIG. 4
Method: as §1

HBEC-66KT cells = test: Soft agar assay (anchorage independent growth, transformation) of HBEC-66KT cells; conditions: chronic treatment, data not shown
Description: (§2) Three immortalized human bronchial epithelial cell lines (HBEC-57KT, -65KT, and -66KT) were used (see, Ramirez et al., Cancer Res., 2004, 64, 9027-34). […] Cells were immortalized by over-expressing Cdk4 and human telomerase reverse transcriptase (hTERT) to emulate two of the earliest events in lung cancer pathogenesis: abrogation of the p16/RB cell cycle checkpoint pathway and bypass of replicative senescence. HBEC-57KT, -65KT, and -66KT cells were maintained in keratinocyte serum-free (KSF) media containing 50 μg/ml bovine pituitary extract and 5 ng/ml epidermal growth factor. Initially, cells were chronically treated with 0.1% DMSO (vehicle) or 100 nM E2, 4-OHE1 or 4-OHE2. Subsequently, a broader dose range was tested, including 2, 10, 50, or 100 nM […]1, or 2-OHE2. Exposure times ranged from a minimum of 18 weeks and a maximum of 40 weeks. An aliquot from each cell line and treatment was banked in liquid nitrogen every 1-2 weeks. At specific timepoints (18, 24 and 34 weeks post-treatment), each treated cell line was assayed for transformation by assessing anchorage independent growth in soft agar according to the method of de Larco and Todaro (see, de Larco et al., Proc. Natl. Acad. Sci. USA, 1978, 75, 4001-5). Briefly, each well of a 12-well plate was coated with 0.6% agarose/KSF media. Wells were overlaid with 0.3% agarose/KSF media containing 5000 HBEC-KT cells. RKO colon carcinoma cells were included as a positive control. Each assay was performed in triplicate. After 4-6 weeks, plates were either stained with crystal violet for counting or used to isolate viable clones. Transformed clones were picked using a p200 pipette tip, placed back in culture under pre-treatment conditions in KSF media, and expanded for future analyses.

HBEC-65KT cells [3] = test: Soft agar assay (anchorage independent growth, transformation) of HBEC-65KT cells; conditions: for # Established: Experiment 2, picked clones established in culture
Description: as §2, with “At specific timepoints (18, 24 and 34 weeks post-treatment), each treated cell line was assayed for transformation by assessing anchorage independent growth in soft agar according to the method of de Larco and Todaro (see, de Larco et al., Proc.” left out

HBEC-57KT cells [4] = test: Soft agar assay (anchorage independent growth, transformation) of HBEC-57KT cells; conditions: for transformation, ability to grow in soft agar: 2, 10, 50, or 100 nM for 27 weeks, FIG. 3; for colony formation / transformation in soft agar: 35 weeks of chronic treatment; for # Established: Experiment 2, picked clones established in culture
Description: as §2, with “At specific timepoints (18, 24 and 34 weeks post-treatment), each treated cell line was assayed for transformation by assessing anchorage independent growth in soft agar according to the method of de Larco and Todaro (see, de Larco et al., Proc.” left out

[5] = Experiment 2, chronic treatment, 100 nM, soft agar
[6] = Experiment 3, 18 weeks treated, colonies diffuse, did not grow once picked (not fully transformed)

C[C@]12CC[C@@H]3c4ccc(O)c(O)c4CC[C@H]3[C@@H]1CC[C@@H]2O [4-OHE2]
DNA damage, comet tail moment vs. DMSO (HBEC-65KT cells [1]): induce DNA damage
DNA damage, comet tail moment vs. DMSO (HBEC-57KT cells [2]): induce DNA damage
transformation (HBEC-66KT cells): None of the tested treatments; also recorded: negative for transformation
# Colonies (HBEC-65KT cells [3]; [5]): 0
# Established (HBEC-65KT cells [3]): 0
# Colonies (HBEC-65KT cells [3]; Experiment 3, 35 weeks treated): 0
transformation, ability to grow in soft agar (HBEC-57KT cells [4]): can transform HBEC-57KT cells
colony formation / transformation in soft agar (HBEC-57KT cells [4]): efficient colony formation
# Colonies (HBEC-57KT cells [4]; [5]): 40
# Established (HBEC-57KT cells [4]): 11
# Colonies (HBEC-57KT cells [4]; [6]): 4*
# Colonies (HBEC-57KT cells [4]; Experiment 3, 35 weeks treated): 54

C[C@]12CC[C@@H]3c4ccc(O)cc4CC[C@H]3[C@@H]1CC[C@@H]2O [E2, 17β estradiol]
DNA damage, comet tail moment vs. DMSO (HBEC-65KT cells [1]): induce DNA damage
DNA damage, comet tail moment vs. DMSO (HBEC-57KT cells [2]): induce DNA damage
transformation (HBEC-66KT cells): None of the tested treatments; also recorded: negative for transformation
colony formation in soft agar (HBEC-65KT cells [3]; 35 weeks of chronic treatment): low level colony formation
# Colonies (HBEC-65KT cells [3]; [5]): 11
# Established (HBEC-65KT cells [3]): 4
# Colonies (HBEC-65KT cells [3]; Experiment 3, 18 weeks treated): 0
# Colonies (HBEC-65KT cells [3]; Experiment 3, 35 weeks treated): 34
transformation, ability to grow in soft agar (HBEC-57KT cells [4]): can transform HBEC-57KT cells
colony formation / transformation in soft agar (HBEC-57KT cells [4]): low level colony formation
# Colonies (HBEC-57KT cells [4]; [5]): 13
# Established (HBEC-57KT cells [4]): 6
# Colonies (HBEC-57KT cells [4]; [6]): 0
# Colonies (HBEC-57KT cells [4]; Experiment 3, 35 weeks treated): 30

C[C@]12CC[C@@H]3c4cc(O)c(O)cc4CC[C@H]3[C@@H]1CC[C@@H]2O [2-OHE2]
transformation, ability to grow in soft agar (HBEC-57KT cells [4]): can transform HBEC-57KT cells

C[C@]12CC[C@@H]3c4cc(O)c(O)cc4CC[C@H]3[C@@H]1CCC2=O [2-OHE1]
transformation, ability to grow in soft agar (HBEC-57KT cells [4]): can transform HBEC-57KT cells

C[C@]12CC[C@@H]3c4ccc(O)c(O)c4CC[C@H]3[C@@H]1CCC2=O [4-OHE1]
transformation (HBEC-66KT cells): None of the tested treatments; also recorded: negative for transformation
# Colonies (HBEC-65KT cells [3]; [5]): 0
# Established (HBEC-65KT cells [3]): 0
# Colonies (HBEC-65KT cells [3]; Experiment 3, 35 weeks treated): 0
transformation, ability to grow in soft agar (HBEC-57KT cells [4]): can transform HBEC-57KT cells
colony formation / transformation in soft agar (HBEC-57KT cells [4]): also transformed HBEC-57KT cells
# Colonies (HBEC-57KT cells [4]; [5]): 0
# Established (HBEC-57KT cells [4]): 0
# Colonies (HBEC-57KT cells [4]; Experiment 3, 35 weeks treated): 5 (small)
